Data reported in US20240407993A1, “PEPTIDE HAVING ANTI-AGING ACTIVITY, AND USE THEREOF” (CAREGEN CO., LTD., priority 2021, published 2024).

Columns and labels:
MMP-1 [1] = assay: MMP-1 protein expression increased by UV irradiation, western blot in keratinocytes; format: cell-based, human; conditions: HaCaT cells, 15 mJ/cm^2 UVB, peptide 1, 10, 50 μM, 24 hours after irradiation; FIG. 6B
Experimental: (§1) The expression of MMP-1 encoding proteins related to collagen degradation increases by ultraviolet irradiation. Therefore, it was confirmed whether the expression of the MMP-1 protein was inhibited again and the cell aging phenomenon was inhibited when treated with the peptide of the present invention.
(§2) First, NIH3T3 cells and HaCaT cells were seeded in a 6-well plate at a cell density of 5×10^5 cell/well, respectively, and then the cells were cultured in DMEM medium containing 10% fetal bovine serum (FBS) for 24 hours. The cultured cells were washed once with serum free DMEM medium, and the peptide of the present invention was mixed in 1 mL of the serum free DMEM medium at each of concentrations of 1, 10, and 50 μM, and dispensed into the cells. A positive control (PC) was treated with 2.5 mM of N-Acetylcysteine (NaC) instead of the above peptide.
(§3) The cells were cultured in a CO2 incubator at 37° C. for 1 hour. The medium of the cultured cells was transferred to a tube (e-tube), 1 ml of PBS was added, and then the NIH3T3 cells were irradiated with 6 J/cm^2 of UVA and the HaCaT cells were irradiated with 15 mJ/cm^2 of UVB using a UV irradiator (VILBER LOURMAT, Cat No.: 3102-BSU, France). After removing PBS, 900 μL of the medium transferred to the tube was added, and culture was performed in a CO2 incubator at 37° C. for 24 hours. […]

Elastin = Elastin gene expression by RT-PCR in fibroblasts; format: cell-based, mouse; conditions: NIH3T3 cells, peptide 1, 10, 50 μM, 24 hours; FIGS. 1A, 1D
Experimental: as §2, with “(mouse fibroblast cell line)” for “and HaCaT cells”, “3×10^5” for “5×10^5”, “cell/well,” for “cell/well, respectively,”, “5 ng/ml” for “2.5 mM”, “TGF-β1” for “N-Acetylcysteine (NaC)”, “peptide. The cells were cultured in a CO2 incubator at 37° C. for 24 hours.” for “peptide.”
(§4) The cultured cells were washed twice with PBS, and RNA was extracted from the cells using easy blue (iNtRON, Cat. No.: 17061, Korea). The amount of RNA extracted was quantified, 1,000 ng of RNA was added per tube, and RT reaction was performed using a kit (enzynomics, Cat. No.: PT200, Korea). RT-PCR was performed using a PCR kit (enzynomics, Cat. No.: […], Korea). The sequences of the primers of collagen, fibronectin, and elastin used in RT-PCR and the sequence of the primer of GAPDH used to compare the total RNA amount of each treatment group are shown in [Table 2].

hyaluronic acid = assay: Hyaluronic acid secretion (HA ELISA) in keratinocytes; format: cell-based, human; conditions: HaCaT cells, peptide 1, 10, 50 μM, 24 hours; FIG. 2
Experimental: First, HaCaT cells (human keratinocyte cell line) were seeded in a 48-well plate at a cell density of 1×10^5 cell/well, and then the cells were cultured in DMEM medium containing 10% fetal bovine serum (FBS) for 24 hours. The cultured cells were washed once with serum free DMEM medium, and the peptide of the present invention was mixed in 2 mL of the serum free DMEM medium at each of concentrations of 1, 10, and 50 μM, and dispensed into three wells by 500 μL per condition. A positive control (PC) was treated with 100 nM of EGF instead of the above peptide. The cells were cultured in a CO2 incubator at 37° C. for 24 hours.
The medium of the cultured HaCaT cells was centrifuged to settle a suspended matter, and a supernatant was transferred to an e-tube and used to perform HA ELISA (ECHELON biosciences, Cat No.: K-1200, USA).

AQP3 = AQP3 mRNA level by RT-PCR in keratinocytes; format: cell-based, human; conditions: HaCaT cells, peptide 1, 10, 50 μM, 24 hours; FIGS. 3A, 3C
Experimental: First, HaCaT cells were seeded in a 6-well plate at a cell density of 3×10^5 cell/well, and then the cells were cultured in DMEM medium containing 10% fetal bovine serum (FBS) for 24 hours. The cultured cells were washed once with serum free DMEM medium, and then the peptide of the present invention was mixed in 1 mL of the serum free DMEM medium at each of concentrations of 1, 10, and 50 μM, and dispensed into the cells. A positive control (PC) was treated with 100 nM of EGF instead of the above peptide. The cells were cultured in a CO2 incubator at 37° C. for 24 hours.
The cultured cells were washed twice with PBS, and then RNA was extracted from the cells using easy blue (iNtRON, Cat. No.: 17061, Korea). The extracted RNA was subjected to RT reaction using a kit (enzynomics, Cat. No.: RT200, Korea). Thereafter, RT-PCR was performed using a PCR kit (enzynomics, Cat. No.: R581T, Korea). The sequences of the primers of AQP3 and SIRT1 used in RT-PCR and the sequence of the primer of GAPDH used to compare the total RNA amount of each treatment group are shown in [Table 2].

Fibronectin = Fibronectin gene expression by RT-PCR in fibroblasts; format: cell-based, mouse; conditions: NIH3T3 cells, peptide 1, 10, 50 μM, 24 hours; FIGS. 1A, 1C
Experimental: First, NIH3T3 cells (mouse fibroblast cell line) were seeded in a 6-well plate at a cell density of 3×10^5 cell/well, and then the cells were cultured in DMEM medium containing 10% fetal bovine serum (FBS) for 24 hours. The cultured cells were washed once with serum free DMEM medium, and the peptide of the present invention was mixed in 1 mL of the serum free DMEM medium at each of concentrations of 1, 10, and 50 μM, and dispensed into the cells. A positive control (PC) was treated with 5 ng/ml of TGF-β1 instead of the above peptide. The cells were cultured in a CO2 incubator at 37° C. for 24 hours.
as §4

MMP-1 [2] = assay: MMP-1 protein expression increased by UV irradiation, western blot in fibroblasts; format: cell-based, mouse; conditions: NIH3T3 cells, 6 J/cm^2 UVA, peptide 1, 10, 50 μM, 24 hours after irradiation; FIG. 6A
Experimental: as §1, §2, §3

## LCACCLHNCNECQ
MMP-1 [1]
  expression of MMP-1 increased by UV irradiation: inhibited
Elastin
  expression of the elastin gene: gradually increased as a concentration of the peptide increased
Hyaluronic acid
  secretion of hyaluronic acid protein: gradually increased as the concentration of the peptide increased
AQP3
  mRNA level of AQP3: increased
Fibronectin
  expression of the fibronectin gene: gradually increased as a concentration of the peptide increased
MMP-1 [2]
  expression of MMP-1 increased by UV irradiation: inhibited
